Measured values published in the supplement of paper PMC10307832.

Legend:
Assay in all cases: relative viability (nuclei count vs DMSO), 5 days (fraction); higher = more cells survive
Trametinib + Phenformin = compound: CC(=O)Nc1cccc(-n2c(=O)n(C3CC3)c(=O)c3c(Nc4ccc(I)cc4F)n(C)c(=O)c(C)c32)c1 [Trametinib] + N=C(N)NC(=N)NCCc1ccccc1 [Phenformin] (partner 250 µM)
In short: (§1)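 Nuclei were stained with Hoechst during a one-step fixation (final 0.05% Triton X-100, 1% formaldehyde, 1 ug/ml Hoechst) carried out 5 days after dosing, then counted on 4× images. The cells, lung cancer lines in 1536-well plates, had been dosed by pin tool the day after seeding with one drug alone or a fixed anchor-drug dose plus five library-drug doses (not always all listed) in √10 steps. Relative viability is the nuclei count in treated wells divided by that in vehicle wells, and each value is the median of duplicate plates.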

[1] = compound: CN1C=C(C2=CC=CC=C21)/C=C\3/C4=C(C=CC=N4)NC3=O + COc1cccc2cc(-c3nc([C@H]4CC[C@H](C(=O)O)CC4)n4ncnc(N)c34)[nH]c12 [OSI-027] (partner 0.5 µM)
In short: as §1

Trametinib + Alpelisib = compound: CC(=O)Nc1cccc(-n2c(=O)n(C3CC3)c(=O)c3c(Nc4ccc(I)cc4F)n(C)c(=O)c(C)c32)c1 [Trametinib] + Cc1nc(NC(=O)N2CCC[C@H]2C(N)=O)sc1-c1ccnc(C(C)(C)C(F)(F)F)c1 [Alpelisib] (partner 2 µM)
In short: as §1

[2] = compound: CN1C=C(C2=CC=CC=C21)/C=C\3/C4=C(C=CC=N4)NC3=O + CS(=O)(=O)N1CCN(Cc2cc3nc(-c4cccc5[nH]ncc45)nc(N4CCOCC4)c3s2)CC1 [Pictilisib] (partner 1 µM)
In short: as §1

| Cell Line | relative viability (Trametinib + Phenformin; first compound 0.0025 µM) | relative viability (Trametinib + Phenformin; first compound 0.007906 µM) | relative viability (Trametinib + Phenformin; first compound 0.025 µM) | relative viability (Trametinib + Phenformin; first compound 0.07906 µM) | relative viability (Trametinib + Phenformin; first compound 0.25 µM) | relative viability ([1]; first compound 0.02 µM) | relative viability ([1]; first compound 0.06325 µM) | relative viability ([1]; first compound 0.6325 µM) | relative viability ([1]; first compound 2 µM) | relative viability (Trametinib + Alpelisib; first compound 0.0025 µM) | relative viability (Trametinib + Alpelisib; first compound 0.007906 µM) | relative viability (Trametinib + Alpelisib; first compound 0.025 µM) | relative viability (Trametinib + Alpelisib; first compound 0.07906 µM) | relative viability (Trametinib + Alpelisib; first compound 0.25 µM) | relative viability ([1]; first compound 0.2 µM) | relative viability ([2]; first compound 0.02 µM) | relative viability ([2]; first compound 0.06325 µM) | relative viability ([2]; first compound 0.2 µM) | relative viability ([2]; first compound 0.6325 µM) | relative viability ([2]; first compound 2 µM) |
| --- | --- | --- | --- | --- | --- | --- | --- | --- | --- | --- | --- | --- | --- | --- | --- | --- | --- | --- | --- | --- |
| SW 900 | 0.579 | 0.532 | 0.457 | 0.487 | 0.143 | 0.601 | 0.49 | 0.6 | 0.703 |  |  |  |  |  |  |  |  |  |  |  |
| PC-3 [JPC-3] | 0.46 | 0.463 | 0.427 | 0.405 | 0.373 | 0.698 | 0.487 | 0.703 | 0.694 | 0.998 | 0.968 | 0.864 | 0.806 | 0.511 | 0.747 | 0.703 | 0.691 | 0.665 | 0.778 | 0.758 |
| NCI-H1703 |  |  |  |  |  |  |  |  |  | 0.367 | 0.373 | 0.28 | 0.306 | 0.29 |  | 0.232 | 0.245 | 0.257 | 0.283 | 0.23 |
| EPLC-272H | 0.273 | 0.194 | 0.171 | 0.15 | 0.128 | 0.219 | 0.29 |  | 0.309 | 0.721 | 0.539 | 0.438 | 0.438 | 0.346 | 0.269 | 0.294 | 0.285 |  | 0.27 | 0.304 |
| NCI-H1792 | 0.309 | 0.206 | 0.071 | 0.157 | 0.0553 | 0.72 | 0.71 |  | 0.464 | 0.644 | 0.53 | 0.537 | 0.382 | 0.255 | 0.768 | 0.247 | 0.223 | 0.214 |  | 0.275 |
| NCI-H2085 | 0.588 | 0.509 | 0.332 | 0.464 | 0.25 | 0.897 | 0.717 | 0.716 | 0.67 | 0.916 | 0.757 | 0.635 | 0.655 | 0.608 | 0.597 | 0.307 | 0.427 | 0.39 | 0.458 | 0.534 |
| LK-2 | 0.433 | 0.649 | 0.379 | 0.35 | 0.142 |  |  | 0.195 | 0.211 | 1 | 0.862 | 0.958 | 1.28 | 0.303 | 0.184 |  | 0.364 | 0.458 | 0.453 | 0.557 |
| NCI-H1395 | 0.479 | 0.445 | 0.432 | 0.416 | 0.328 | 0.604 | 0.613 | 0.669 | 0.601 | 1.02 | 0.903 | 1.39 | 1.09 | 0.652 | 0.445 | 0.605 | 0.581 |  | 0.602 | 0.577 |
| ABC-1 | 0.236 | 0.259 | 0.226 | 0.213 | 0.221 | 0.683 | 0.461 | 0.4 | 0.533 | 0.729 | 0.703 | 0.564 | 0.583 | 0.554 | 0.273 | 0.774 | 0.681 | 0.682 | 0.663 | 0.608 |
| RERF-LC-KJ | 0.371 | 0.391 | 0.382 | 0.371 | 0.321 | 0.551 | 0.574 | 0.554 | 0.545 | 0.775 | 0.759 | 0.645 | 0.657 | 0.472 | 0.493 | 0.748 | 0.524 | 0.55 | 0.445 | 0.497 |
| NCI-H1648 |  |  |  |  |  |  | 0.239 | 0.258 | 0.281 |  |  |  |  |  | 0.259 |  |  |  |  |  |
| NCI-H522 | 0.575 | 0.657 | 0.506 | 0.574 | 0.434 | 0.648 | 0.743 | 0.75 | 0.835 |  |  |  |  |  | 0.761 |  |  |  |  |  |
| EBC-1 |  |  |  |  |  |  |  |  |  | 0.901 | 0.65 | 0.313 | 0.21 | 0.206 |  | 0.242 | 0.256 | 0.283 | 0.287 | 0.309 |
| ChaGo-K-1 | 0.413 | 0.444 | 0.492 | 0.414 | 0.317 | 0.56 | 0.672 | 0.613 | 0.609 |  |  |  |  |  | 0.339 | 0.607 | 0.62 |  | 0.403 | 0.571 |
| NCI-H1299 |  |  |  |  |  |  |  |  |  | 1.04 | 1.08 | 0.911 | 0.799 | 0.744 |  | 0.567 | 0.811 | 0.8 | 0.824 | 0.894 |
| NCI-H1623 | 0.588 | 0.48 | 0.291 | 0.396 | 0.634 | 0.371 | 0.404 | 0.38 | 0.379 |  |  |  |  |  | 0.359 |  |  |  |  |  |
| IA-LM |  |  |  |  |  |  |  |  |  | 0.656 | 0.393 | 0.129 | 0.104 | 0.109 |  | 0.273 | 0.264 |  | 0.347 | 0.363 |
| A549 | 0.166 | 0.153 | 0.125 | 0.116 | 0.058 |  |  |  |  | 0.6 | 0.37 | 0.206 | 0.158 | 0.0675 |  | 0.544 | 0.474 | 0.465 | 0.46 | 0.529 |
| Calu-6 |  |  |  |  |  |  |  |  |  | 0.974 | 0.414 | 0.231 | 0.156 | 0.16 |  | 0.841 | 0.776 | 0.9 | 0.936 | 0.897 |
| NCI-H1650 | 0.388 | 0.538 | 0.495 | 0.325 | 0.151 | 0.55 | 0.541 | 0.458 | 0.539 |  |  |  |  |  | 0.437 | 0.539 | 0.561 | 0.436 | 0.505 | 0.573 |
| NCI-H2342 | 0.49 | 0.549 |  | 0.403 | 0.56 | 0.617 | 0.616 | 0.535 | 0.65 |  |  |  |  |  | 0.596 |  |  |  |  |  |
